Reference: patent US11613531B2, “Inhibitors of RHO associated coiled-coil containing protein kinase” (Kadmon Corporation, LLC, priority 2017, dated 2023)
Read-outs that look alike come from different tables or passages of the source.

How the values were obtained:
[1] = target: Recombinant ROCK2 (amino acids 1-552) (Homo sapiens (Human), UniProt O75116); assay: Z′-Lyte kinase assay, ROCK2; format: biochemical; settings: for inhibition at 1 µM: 1 μM compound, read-out: ROCK2 % inh. @ [conc]
Procedure: Determination of Compound's ROCK Inhibitory Activity In Vitro (Z'Lyte Assay).
Recombinant ROCK1 (amino acids 1-535) and ROCK2 (amino acids 1-552) proteins were purchased from ThermoFisher Scientific. Compound's activities were measured by Z′-lyte kinase kit (ThermoFisher Scientific) and IC50 was calculated
In vitro activities for the compounds were measured with Z′-lyte kinase kit (ThermoFisher Scientific). The percent inhibition rate was calculated by normalizing the kinase activity value obtained with 1 μM compound treatment against DMSO control value and then applied to the formula, [1-(compound/DMSO)]×100%. IC50s were calculated using the nonlinear regression curve fit function of the GraphPad Prism software with kinase activities data measured with 9 points 2-fold serial dilution of compounds treatment. In cell pMLC IC50s were calculated with data obtained from A7R5 cell experiments. A7R5 cells were treated with 9 points 2-fold serial dilution of compounds and ppMlc (T18/S19) levels were determined to calculate cellular IC50 values of the compounds using the nonlinear regression curve fit function of the GraphPad Prism software. NIH3T3 cells stably expressing ACTA2-promoter-driven-luciferase were applied to measure ROCK compounds functional IC50s in cells. Cells were plated in 96 well plates to confluence and treated with 9 points serial dilution of compounds in combination with TGFβ1 for 24 hr. Luciferase activities were measured and compound's IC50s were calculated using the nonlinear regression curve fit function of the GraphPad Prism software.

[2] = tested on: ppMlc (T18/S19) levels in A7R5 cells; assay: A7R5 in-cell ELISA (pMLC); format: cell-based, Rat; settings: Rattus norvegicus, A7R5, A7R5 cells; for inhibition at 10 µM: 10 μM compound; for inhibition at 10 µM / inhibition at 1 µM: read-out: pMLC % inh A7R5 @ [conc]; for inhibition at 1 µM: 1 μM compound
Procedure, shortened: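 Cellular IC50 came from a nonlinear regression fit of ppMlc (T18/S19) signal, read by colorimetric in-cell ELISA on fixed cells. Rat A7R5 aortic smooth muscle cells had been exposed for 90 min to compounds in 9-point 2-fold serial dilution, 24 h after seeding.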

[3] = 9 points 2-fold serial dilution

Recombinant ROCK2 (amino acids 1-552), sequence (O75116 1-552): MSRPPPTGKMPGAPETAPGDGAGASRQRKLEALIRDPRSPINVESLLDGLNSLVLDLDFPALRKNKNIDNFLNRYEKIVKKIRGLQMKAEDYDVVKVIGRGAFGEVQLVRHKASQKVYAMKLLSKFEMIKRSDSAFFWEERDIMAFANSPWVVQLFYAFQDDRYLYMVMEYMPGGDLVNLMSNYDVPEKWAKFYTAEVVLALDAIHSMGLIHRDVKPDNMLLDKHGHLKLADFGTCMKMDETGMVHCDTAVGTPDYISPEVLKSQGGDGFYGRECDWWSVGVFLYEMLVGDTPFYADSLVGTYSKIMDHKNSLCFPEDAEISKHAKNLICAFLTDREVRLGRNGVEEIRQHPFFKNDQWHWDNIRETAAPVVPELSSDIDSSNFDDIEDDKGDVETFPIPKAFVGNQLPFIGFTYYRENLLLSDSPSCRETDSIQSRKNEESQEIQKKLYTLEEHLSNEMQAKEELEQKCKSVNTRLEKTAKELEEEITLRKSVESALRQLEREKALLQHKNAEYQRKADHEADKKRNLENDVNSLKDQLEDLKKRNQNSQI

SMILES	inhibition at 1 µM [1]	IC50 ([2]; ppMlc (T18/S19))	IC50 [1]	IC50 [2]	inhibition at 10 µM [2]	inhibition at 1 µM [2]	IC50 [1, 3]
COc1cnc(N2CCNC(C)CC2)nc1Nc1ccc2[nH]ncc2c1 (stereo not drawn) [Example 53, N-(5-methoxy-2-(5-methyl-1,4-diazepan-1-yl)pyrimidin-4-yl)-1H-indazol-5-amine]	74.5%	1720 nM			51.3%		
CCC1CCN(c2ncc(C)c(Nc3ccc4[nH]ncc4c3)n2)CCN1 (stereo not drawn) [Example 96, N-(2-(5-ethyl-1,4-diazepan-1-yl)-5-methylpyrimidin-4-yl)-1H-indazol-5-amine]	27.2%				14.3%		
Cc1nc(N2CCCNC(C)C2)nc(Nc2ccc3[nH]ncc3c2)c1C (stereo not drawn) [Example 22, N-(5,6-dimethyl-2-(3-methyl-1,4-diazepan-1-yl)pyrimidin-4-yl)-1H-indazol-5-amine]	76.5%	1390 nM			54.2%		
c1cc(Nc2ccc3[nH]ncc3c2)nc(N2CCN3CCNCC3C2)n1 (stereo not drawn) [Example 84, N-(2-(octahydro-2H-pyrazino[1,2-a]pyrazin-2-yl)pyrimidin-4-yl)-1H-indazol-5-amine]	22.2%					0.7%	
c1cc(Nc2ccc3[nH]ncc3c2)nc(N2CC3CCC2CN3)n1 (stereo not drawn) [Example 67, N-(2-(2,5-diazabicyclo[2.2.2]octan-2-yl)pyrimidin-4-yl)-1H-indazol-5-amine]	99.2%	1360 nM				31.4%	0.045 µM
CC1CN(c2ncc(Cl)c(Nc3ccc4[nH]ncc4c3)n2)CCCN1 (stereo not drawn) [Example 90, N-(5-chloro-2-(3-methyl-1,4-diazepan-1-yl)pyrimidin-4-yl)-1H-indazol-5-amine]	73.8%	2200 nM			54.2%		
Cc1nc(N2CCNC(C(C)C)C2)nc(Nc2ccc3[nH]ncc3c2)c1C (stereo not drawn) [Example 15, N-(2-(3-isopropylpiperazin-1-yl)-5,6-dimethylpyrimidin-4-yl)-1H-indazol-5-amine]	8%				26.4%		
CCC1CN(c2nc(C)c(C)c(Nc3ccc4[nH]ncc4c3)n2)CCN1 (stereo not drawn) [Example 14, N-(2-(3-ethylpiperazin-1-yl)-5,6-dimethylpyrimidin-4-yl)-1H-indazol-5-amine]	33.3%				48.9%		
CCC1CCN(c2ncc(OC)c(Nc3ccc4[nH]ncc4c3)n2)CCN1 (stereo not drawn) [Example 54, N-(2-(5-ethyl-1,4-diazepan-1-yl)-5-methoxypyrimidin-4-yl)-1H-indazol-5-amine]	58.5%	1700 nM			50.1%		
Cc1nc(N2CCNC(C)C2)nc(Nc2ccc3[nH]ncc3c2)c1C (stereo not drawn) [Example 13, N-(5,6-dimethyl-2-(3-methylpiperazin-1-yl)pyrimidin-4-yl)-1H-indazol-5-amine]	58.1%	1490 nM			51.1%		
COc1cnc(N2CCNCC2)nc1Nc1ccc2[nH]ncc2c1 [Example 30, N-(5-methoxy-2-(piperazin-1-yl)pyrimidin-4-yl)-1H-indazol-5-amine]	90.6%	1120 nM			56.4%		
Fc1cnc(N2CC3CC(C2)N3)nc1Nc1ccc2[nH]ncc2c1 [Example 157, N-(2-(3,6-diazabicyclo[3.1.1]heptan-3-yl)-5-fluoropyrimidin-4-yl)-1H-indazol-5-amine]						27.2%	0.089 µM
c1cc(Nc2ccc3[nH]ncc3c2)nc(N2CC3CC(C2)N3)n1 [Example 199, N-(2-(3,6-diazabicyclo[3.1.1]heptan-3-yl)pyrimidin-4-yl)-1H-indazol-5-amine]		525 nM			49.6%		0.151 µM
c1cc(Nc2ccc(-c3cnn[nH]3)cc2)nc(N2CCNCC2)n1 [Example 41, N-(4-(1H-1,2,3-triazol-5-yl)phenyl)-2-(piperazin-1-yl)pyrimidin-4-amine]					9.96%		> 10 µM
Cc1cnc(N2CCNCC2)nc1Nc1ccc2[nH]ncc2c1 [Example 95, N-(5-methyl-2-(piperazin-1-yl)pyrimidin-4-yl)-1H-indazol-5-amine]	61%				46.7%		
c1ccc2c(Nc3ccc4[nH]ncc4c3)nc(N3CCCNCC3)nc2c1 [Example 6, 2-(1,4-diazepan-1-yl)-N-(1H-indazol-5-yl)quinazolin-4-amine]	85.7%	1800 nM			94.6%		

Now from value to molecule, other results behind:

inhibition at 1 µM [1]	IC50 ([2]; ppMlc (T18/S19))	IC50 [1]	IC50 [2]	SMILES	inhibition at 10 µM [2]	inhibition at 1 µM [2]	IC50 [1, 3]
0%				Cc1cnc(N2CC(C)NC(C)C2)nc1Nc1ccc2[nH]ncc2c1 (stereo not drawn) [Example 98, N-(2-(3,5-dimethylpiperazin-1-yl)-5-methylpyrimidin-4-yl)-1H-indazol-5-amine]	17.4%		
81.8%		0.245 µM		Cc1cc(Nc2ccc3[nH]ncc3c2)nc(N2CCC3CNCC3CC2)n1 (stereo not drawn) [Example 132, N-(6-methyl-2-(octahydropyrrolo[3,4-d]azepin-6(1H)-yl)pyrimidin-4-yl)-1H-indazol-5-amine]		19.6%	
47.8%				CCC1CN(c2ncc(Cl)c(Nc3ccc4[nH]ncc4c3)n2)CCCN1 (stereo not drawn) [Example 186, N-(5-chloro-2-(3-ethyl 4-diazepan-1-yl)pyrimidin-4-yl)-1H-indazol-5-amine]	47.7%		
44.9%				CCC1CCN(c2ncc(Cl)c(Nc3ccc4[nH]ncc4c3)n2)CCN1 (stereo not drawn) [Example 188, N-(5-chloro-2-(5-ethyl-1,4-diazepan-1-yl)pyrimidin-4-yl)-1H-indazol-5-amine]	47.9%		
53.9%				CCC1CNCCCN1c1ncc(C)c(Nc2ccc3[nH]ncc3c2)n1 (stereo not drawn) [Example 105, N-(2-(2-ethyl-1,4-diazepan-1-yl)-5-methylpyrimidin-4-yl)-1H-indazol-5-amine]		15.1%	
92.8%	514 nM			c1cc2nc(N3CCCNCC3)nc(Nc3ccc(-c4cn[nH]c4)cc3)c2s1 [Example 264, N-(4-(1H-pyrazol-4-yl)phenyl)-2-(1,4-diazepan-1-yl)thieno[3,2-d]pyrimidin-4-amine]	60.2%		0.03 µM
34.1%				CCC1CN(c2ncc(C)c(Nc3ccc4[nH]ncc4c3)n2)CCCN1 (stereo not drawn) [Example 106, N-(2-(3-ethyl-1,4-diazepan-1-yl)-5-methylpyrimidin-4-yl)-1H-indazol-5-amine]		12.8%	
77%	1030 nM			CC1CCN(c2ncc(F)c(Nc3ccc4[nH]ncc4c3)n2)CCN1 (stereo not drawn) [Example 152, N-(5-fluoro-2-(5-methyl-1,4-diazepan-1-yl)pyrimidin-4-yl)-1H-indazol-5-amine]	50.7%		
84.5%	1110 nM			CC1CCNCCN1c1nccc(Nc2ccc3[nH]ncc3c2)n1 (stereo not drawn) [Example 240, N-(2-(7-methyl-1,4-diazepan-1-yl)pyrimidin-4-yl)-1H-indazol-5-amine]	78.1%		
67%	1850 nM			CC1CCN(c2ncc(Cl)c(Nc3ccc4[nH]ncc4c3)n2)CCN1 (stereo not drawn) [Example 191, N-(5-chloro-2-(5-methyl-1,4-diazepan-1-yl)pyrimidin-4-yl)-1H-indazol-5-amine]	50.6%		
37.6%				CC(C)C1CN(c2ncc(F)c(Nc3ccc4[nH]ncc4c3)n2)CCN1 (stereo not drawn) [Example 147, N-(5-fluoro-2-(3-isopropylpiperazin-1-yl)pyrimidin-4-yl)-1H-indazol-5-amine]	47.8%		
47.5%				Cc1cnc(N2CCNC(C)CC2)nc1Nc1ccc2[nH]ncc2c1 (stereo not drawn) [Example 100, N-(5-methyl-2-(5-methyl-1,4-diazepan-1-yl)pyrimidin-4-yl)-1H-indazol-5-amine]	46.4%		
		> 10 µM		c1cc(Nc2ccc(-c3cnc[nH]3)cc2)nc(N2CCNCC2)n1 [Example 351, N-(4-(1H-imidazol-5-yl)phenyl)-2-(piperazin-1-yl)pyrimidin-4-amine]	7.8%		
		1.8 µM		c1ccc(CNC2CCCN(c3nccc(Nc4ccc5[nH]ncc5c4)n3)C2)cc1 (stereo not drawn) [Example 234, N-(2-(3-(benzylamino)piperidin-1-yl)pyrimidin-4-yl)-1H-indazol-5-amine]	55.6%		
		1.05 µM	1630 nM	c1cc(Nc2ccc(-c3ccnc4[nH]ccc34)cc2)nc(N2CCNCC2)n1 [Example 368, N-(4-(1H-pyrrolo[2,3-b]pyridin-4-yl)phenyl)-2-(piperazin-1-yl)pyrimidin-4-amine]	91.3%		
		> 10 µM		COc1ccccc1NC1CCCN(c2nccc(Nc3ccc4[nH]ncc4c3)n2)C1 (stereo not drawn) [Example 244, N-(2-(3-((2-methoxyphenyl)amino)piperidin-1-yl)pyrimidin-4-yl)-1H-indazol-5-amine]	0.8%		
